Values quoted from earlier work as cited in patent US7198802B2, “Tablet obtained by direct compression comprising 4-amino-1-hydroxybutylidene-1,1-bisphosphonic acid as active ingredient” (Zentiva A.S., priority 2000, dated 2007).

Details: atmospheric relative humidity

OC[C@H]1O[C@@H](O[C@H]2[C@H](O)[C@@H](O)C(O)O[C@@H]2CO)[C@H](O)[C@@H](O)[C@H]1O (some centres unmarked) [Lactose]
relative humidity at which moisture / water content rises: above 90%

OC[C@@H](O)[C@@H](O)[C@H](O)[C@H](O)CO [mannitol, Mannitol]
relative humidity at which moisture / water content rises: about 98%
